Measurements from ChEMBL document CHEMBL1124477, “Regional differences in the binding of selective muscarinic receptor antagonists in rat brain: comparison with minimum-energy conformations” (J Med Chem, 1989).

Columns and labels:
[1] = molecular target: Muscarinic acetylcholine receptor
[2] = molecular target: Muscarinic acetylcholine receptor; remark: listed apart in the source
[3] = molecular target: Muscarinic acetylcholine receptor; remark: listed apart in the source
[4] = molecular target: Muscarinic acetylcholine receptor; remark: listed apart in the source
[5] = molecular target: Muscarinic acetylcholine receptor; remark: listed apart in the source
[6] = molecular target: Muscarinic acetylcholine receptor; remark: listed apart in the source
[7] = molecular target: Muscarinic acetylcholine receptor; remark: listed apart in the source
[8] = molecular target: Muscarinic acetylcholine receptor; remark: listed apart in the source
[9] = molecular target: Muscarinic acetylcholine receptor; remark: listed apart in the source
[10] = molecular target: Muscarinic acetylcholine receptor; remark: listed apart in the source
[11] = molecular target: Muscarinic acetylcholine receptor; remark: listed apart in the source
[12] = molecular target: Muscarinic acetylcholine receptor; remark: listed apart in the source
[13] = molecular target: Muscarinic acetylcholine receptor; remark: listed apart in the source
[14] = molecular target: Muscarinic acetylcholine receptor; remark: listed apart in the source
[15] = molecular target: Muscarinic acetylcholine receptor; design: species or system Rattus norvegicus
[16] = molecular target: Muscarinic acetylcholine receptor; remark: listed apart in the source
[17] = molecular target: Muscarinic acetylcholine receptor; remark: listed apart in the source
[18] = molecular target: Muscarinic acetylcholine receptor; remark: listed apart in the source
[19] = molecular target: Muscarinic acetylcholine receptor; remark: listed apart in the source
[20] = molecular target: Muscarinic acetylcholine receptor; remark: listed apart in the source
[21] = molecular target: Muscarinic acetylcholine receptor; remark: listed apart in the source
[22] = molecular target: Muscarinic acetylcholine receptor; remark: listed apart in the source
[23] = molecular target: Muscarinic acetylcholine receptor; remark: listed apart in the source
[24] = molecular target: Muscarinic acetylcholine receptor; remark: listed apart in the source
[25] = molecular target: Muscarinic acetylcholine receptor; remark: listed apart in the source
[26] = molecular target: Muscarinic acetylcholine receptor; remark: listed apart in the source
[27] = molecular target: Muscarinic acetylcholine receptor; remark: listed apart in the source
[28] = molecular target: Muscarinic acetylcholine receptor; remark: listed apart in the source
[29] = molecular target: Muscarinic acetylcholine receptor; remark: listed apart in the source
[30] = molecular target: Muscarinic acetylcholine receptor; remark: listed apart in the source
[31] = molecular target: Muscarinic acetylcholine receptor; remark: listed apart in the source
[32] = molecular target: Muscarinic acetylcholine receptor; remark: listed apart in the source
[33] = molecular target: Muscarinic acetylcholine receptor; assay type: tissue-based, Rattus norvegicus, Hippocampus
[34] = molecular target: Muscarinic acetylcholine receptor; remark: listed apart in the source
[35] = molecular target: Muscarinic acetylcholine receptor; remark: listed apart in the source
[36] = molecular target: Muscarinic acetylcholine receptor; remark: listed apart in the source
[37] = molecular target: Muscarinic acetylcholine receptor; remark: listed apart in the source
[38] = molecular target: Muscarinic acetylcholine receptor; remark: listed apart in the source
[39] = molecular target: Muscarinic acetylcholine receptor; remark: listed apart in the source
[40] = molecular target: Muscarinic acetylcholine receptor; remark: listed apart in the source
[41] = molecular target: Muscarinic acetylcholine receptor; design: species or system Rattus norvegicus; remark: listed apart in the source
[42] = molecular target: Muscarinic acetylcholine receptor; remark: listed apart in the source
[43] = molecular target: Muscarinic acetylcholine receptor; remark: listed apart in the source
[44] = molecular target: Muscarinic acetylcholine receptor; remark: listed apart in the source
[45] = molecular target: Muscarinic acetylcholine receptor; assay type: tissue-based, Rattus norvegicus, Hippocampus; remark: listed apart in the source
[46] = molecular target: Muscarinic acetylcholine receptor; remark: listed apart in the source
[47] = molecular target: Muscarinic acetylcholine receptor; remark: listed apart in the source
[48] = molecular target: Muscarinic acetylcholine receptor; remark: listed apart in the source
[49] = molecular target: Muscarinic acetylcholine receptor; remark: listed apart in the source
[50] = molecular target: Muscarinic acetylcholine receptor; remark: listed apart in the source
[51] = molecular target: Muscarinic acetylcholine receptor; remark: listed apart in the source
[52] = molecular target: Muscarinic acetylcholine receptor; remark: listed apart in the source
[53] = molecular target: Muscarinic acetylcholine receptor; remark: listed apart in the source
[54] = molecular target: Muscarinic acetylcholine receptor; remark: listed apart in the source
[55] = molecular target: Muscarinic acetylcholine receptor; remark: listed apart in the source
[56] = molecular target: Muscarinic acetylcholine receptor; remark: listed apart in the source
[57] = molecular target: Muscarinic acetylcholine receptor; assay type: tissue-based, Rattus norvegicus, Hippocampus; remark: listed apart in the source
[58] = molecular target: Muscarinic acetylcholine receptor; remark: listed apart in the source
[59] = molecular target: Muscarinic acetylcholine receptor; remark: listed apart in the source
[60] = molecular target: Muscarinic acetylcholine receptor; remark: listed apart in the source

In the case of `CCN(CC)CC1CCCCN1CC(=O)N1c2ccccc2C(=O)Nc2cccnc21` (stereo not given) [OTENZEPAD], the IC50 [1] is reported as 460 nM, the IC50 [2] is reported as 250 nM and the IC50 [3] is reported as 14000 nM. For the same molecule, the IC50 [4] was 840 nM, the IC50 [5] was 490 nM and the IC50 [6] was 310 nM. The IC50 [7] was 1200 nM, the IC50 [8] was 490 nM and the IC50 [9] was 1300 nM. It also gave an IC50 [10] of 580 nM, an IC50 [11] of 430 nM and an IC50 [12] of 9800 nM. It also gave an IC50 [13] of 4900 nM, an IC50 [14] of 1000 nM and an IC50 [15] of 1600 nM. It also gave an IC50 [16] of 580 nM, an IC50 [17] of 610 nM and an IC50 [18] of 1900 nM. The IC50 [19] was 690 nM, the IC50 [20] was 5800 nM and the IC50 [21] was 790 nM. It also gave an IC50 [22] of 4300 nM, an IC50 [23] of 1300 nM and an IC50 [24] of 250 nM. For the same molecule, the IC50 [25] was 620 nM, the IC50 [26] was 1400 nM and the IC50 [27] was 420 nM. The IC50 [28] was 570 nM, the IC50 [29] was 3200 nM and the IC50 [30] was 2100 nM. For the same molecule, the IC50 [31] was 240 nM, the IC50 [32] was 720 nM and the IC50 [33] was 6300 nM. The IC50 [34] was 680 nM, the IC50 [35] was 260 nM and the IC50 [36] was 310 nM. The IC50 [37] was 6500 nM, the IC50 [38] was 230 nM and the IC50 [39] was 320 nM. For the same molecule, the IC50 [40] was 1800 nM, the IC50 [41] was 4000 nM and the IC50 [42] was 260 nM. The IC50 [43] was 7300 nM, the IC50 [44] was 2300 nM and the IC50 [45] was 3200 nM. The IC50 [46] was 1500 nM, the IC50 [47] was 7000 nM and the IC50 [48] was 420 nM. It also gave an IC50 [49] of 2000 nM, an IC50 [50] of 2900 nM and an IC50 [51] of 1400 nM. For the same molecule, the IC50 [52] was 4300 nM, the IC50 [53] was 310 nM and the IC50 [54] was 1700 nM. It also gave an IC50 [55] of 1000 nM, an IC50 [56] of 300 nM and an IC50 [57] of 6100 nM. For the same molecule, the IC50 [58] was 2100 nM, the IC50 [59] was 860 nM and the IC50 [60] was 960 nM.
